Experimental data reported in US8476036B2, “Nonluminogenic assay for living cells” (Promega Corporation, priority 2004, dated 2013).
Peptide text beside a SMILES is read from it. * marks the point of attachment. X1 = O=C(O)C1CSC(c2nc3ccc(N*)cc3s2)=N1; Cbz = O=C(OCc1ccccc1)*

Legend:
Format in all cases: cell-based
HL-60 or Jurkat [1] = test: Protease retention substrate selectivity, untreated viable cells; design: key: None denotes no statistical activity above control population.; (+) to (+++++) denotes the range of activity above control population from modest to robust; (+) to (+++++) denotes the range of activity above control population from modest to robust; (+) to (+++++) denotes the range of activity above control population from modest to robust; (+) to (+++++) denotes the range of activity above control population from modest to robust; (+) to (+++++) denotes the range of activity above control population from modest to robust; conditions: substrate cleavage activity above control in untreated viable cells; 15-30 minutes at 37° C.
Text: (§1) Ala-Ala-Phe-AMC was obtained from Promega. Z-Leu-Leu-Val-Tyr-aminoluciferin (LLVY corresponds to SEQ ID NO:18), Z-Leu-Arg-aminoluciferin, Z-Phe-Arg-aminoluciferin, Ala-Ala-Phe-aminoluciferin, (Ala-Ala-Phe)2-R110, and (Gly-Phe)2-R110 were synthesized by Promega Biosciences. Suc-Ala-Ala-Phe-AMC, H-Phe-AMC, H-Tyr-AMC, Glutyl-Ala-Ala-Phe-AMC (EMF corresponds to SEQ ID NO:32), H-Gly-Phe-AMC, Z-Gly-Ala-Met-AMC, Suc-Leu-Leu-Val-Tyr-AMC (LLVY corresponds to SEQ ID NO:18), D-Ala-Leu-Lys-AMC, H-Gly-Ala-AMC, H-Gly-Gly-AMC, Suc-Ala-Ala-Phe-AMC, Z-Arg-Leu-Arg-Gly-Gly-AMC (RLRGG corresponds to SEQ ID NO:29), Z-Leu-Arg-Gly-Gly-AMC (LRGG corresponds to SEQ ID NO:30) and Ac-Ala-Ala-Tyr-AMC were sourced from Bachem. Gly-Phe-AFC, Pro-Phe-Arg-AMC, Gly-Gly-Leu-AMC, and Ser-Tyr-AFC were obtained from Calbiochem. Z-Phe-Arg-AMC and Suc-Arg-Pro-Phe-His-Leu-Leu-Val-Tyr-AMC (RPHLLVY corresponds to SEQ ID NO:31) were purchased from Sigma.
(§2) All substrates were solubilized in DMSO from 10 to 100 mM depending upon inherent solubility. Fluorescent substrates were diluted to 100 μM to 1 mM in 10 mM Hepes, pH 7.5 or matched cell culture medium with 10% serum and added in 1/10th volumes to lysed (freeze fractured, sonicated, or detergent) or untreated viable cells in white-walled, clear bottomed 96-well plates. HL-60 or Jurkat were used in the experimentation interchangeably because of their easily manipulated suspension phenotype. Plates were incubated for 15-30 minutes at 37° C. prior to measuring fluorescence by the CYTOFLUOR® II.
(§3) Luminescent substrates were added to a luciferin detection cake (Promega V859A) resuspended in 2 ml 10 mM Hepes, pH 7.5 to 500 μM. ⅕^th volume of the proluminescent reaction mixes were added to lysed (freeze fractured, sonicated, or detergent) or untreated viable cells in white-walled, clear bottomed 96-well plates. Again, HL-60 or Jurkat were used in the experimentation interchangeably. Plates were incubated at 37° C. in a MeCour' circulating heat block controlled by a Caron 2050W exchange unit. Luminescence was measured between 15 and 30 minutes (signal steady state).
(§4) A broad variety of proteolytic substrates were examined in an effort to characterize potential substrate preferences for protease release or retention in compromised or viable cells (see Table 4). […] Non-blocked substrates (H- and the like) were examined to include the contribution of aminopeptidase activities. From this panel, at least three proteolytic profiles emerged: an aminopeptidase-like activity preferring unblocked Ala-Ala-Phe tripeptide, a proteosomal (chymotrypsin-like) activity measured by release of blocked Leu-Leu-Val-Tyr (SEQ ID NO:18) peptides, and an exceedingly labile activity by Gly-Phe, Gly-Ala, Phe-, Tyr- or Gly-Gly-Leu substrates. The latter activities were only measurable in viable, intact cells. Of further significance is that several fluorophores or proluminescent labels can be used to detect these activities, ultimately allowing for enhanced downstream multiplexing flexibility.

HL-60 or Jurkat [2] = test: Protease release substrate selectivity, lysed (freeze fractured, sonicated, or detergent) cells; design: key: None denotes no statistical activity above control population.; (+) to (+++++) denotes the range of activity above control population from modest to robust; (+) to (+++++) denotes the range of activity above control population from modest to robust; (+) to (+++++) denotes the range of activity above control population from modest to robust; (+) to (+++++) denotes the range of activity above control population from modest to robust; (+) to (+++++) denotes the range of activity above control population from modest to robust; conditions: substrate cleavage activity above control in lysed cells; 15-30 minutes at 37° C.
Text: as §1, §2, §3, §4

Jurkat cells = test: Protease retention assay formats with different peptide sequences and reporters; conditions: viable versus lysed cells
Procedure: Actively doubling Jurkat cells were serially diluted from 37,500 cells/well in RPMI 1640+10% FBS in a white-walled, clear bottomed 96 well plate in 100 μl volumes. The cells in half of the plate were lysed with the addition of Triton X to 0.2% final. The other half of the plate wells received a matched volume (5 μl) of water vehicle. Tyr-AMC, Phe-AMC and Gly-Phe-AFC were all rehydrated in DMSO to 100 mM then diluted in RPMI 1640 to 1 mM. 1/10th volume of diluted substrates were added to the wells, mixed briefly by orbital shaking then incubated at 37° C. in 5% CO2 for up to 1.5 hours. Resulting fluorescence was measured at Ex. 360 Em. 460 and Ex. 405 and Em. 500 at 30 and 90 minutes.

HL-60 cells = test: Luminescent protease release assay with different enzyme targets; conditions: HL-60 with or without sonication, 15 minutes at 37° C.
Procedure: Actively doubling HL-60 cells were adjusted to 100,000 cells/ml and split into two aliquots. One aliquot was sonicated using a microtip MISONIXTM™ 3000 with 30% power for three 5 second pulses. The other aliquot was held at 37° C. The cell suspension and lysates were then two-fold serially diluted in RPMI 1640 +10% FBS in 100 μl volumes. Medium only served as the no cell control. A luciferin detection reagent cake (Promega V859A) was resuspended with 2.0 ml of 10 mM Hepes, pH 7.5. The luciferin detection reagent was then divided and made 1 mM with either Z-Leu-Leu-Val-Tyr-aminoluciferin (LLVY corresponds to SEQ ID NO:18) or Ala-Ala-Phe-aminoluciferin. Each reagent was added to independent replicates of the plate in 1/10th volumes and allowed to incubate for 15 minutes at 37° C. in the Me'Cour thermal jacketed water bath holder before luminescence measurement using the BMG FLUOstar Optima.

SK-MEL-28 cells = test: Live cell protease retention multiplexed with caspase 3/7 activity, SK-MEL-28; conditions: SK-MEL-28, serial dilutions, 5 hours
Procedure: (§5) SK-MEL-28 or ACHN cells were seeded into white-walled, clear bottomed 96 well plates at a density of 10,000 cells per well in 100 μl volumes and allowed to attach at 37° C. in 5% CO2 for a period of 2 hours. After attachment, 50 μl of medium was carefully removed and replaced with serial dilutions of either ionomycin or staurosporine in MEM+10% FBS. Medium only served as control. The plate was incubated for an additional 5 hours. A 1 mM solution of Gly-Phe-AFC was made in MEM and added to the wells in a 1/10th volume. Resulting fluorescence was measured using a CYTOFLUOR® II. Caspase-GIo™ 3/7 reagent was then added and luminescence measure using a BMG FLUOstar Optima.

ACHN cells = test: Live cell protease retention multiplexed with caspase 3/7 activity, ACHN; conditions: serial dilutions, 5 hours
Procedure: as §5

Row | Compound | Retention (HL-60 or Jurkat [1]) | Release (HL-60 or Jurkat [2]) | Suitability as live cell protease retention substrate (Jurkat cells) | Performance as protease release substrate (HL-60 cells) | Cytotoxicity profile (live cell fluorescence and caspase 3/7 activity) (SK-MEL-28 cells) | Cytotoxicity profile (live cell fluorescence and caspase 3/7 activity) (ACHN cells)
1 | NCC(=O)N[C@@H](Cc1ccccc1)C(=O)Nc1ccc2c(c1)Oc1cc(NC(=O)[C@H](Cc3ccccc3)NC(=O)CN)ccc1C21OC(=O)c2ccccc21 [(Gly-Phe)2 R110, (Gly-Phe)2-R110] | None | None | apparently unable to effectively traverse the cell membrane or was not effectively cleaved by the candidate protease | – | – | –
2 | CC(C)CC(NC(=O)OCc1ccccc1)C(=O)NC(CC(C)C)C(=O)NC(C(=O)NC(Cc1ccc(O)cc1)C(=O)Nc1ccc2nc(C3=NC(C(=O)O)CS3)sc2c1)C(C)C (stereo not drawn) [Z-Leu-Leu-Val-Tyr-Aluc, Z-Leu-Leu-Val-Tyr-aminoluciferin] (Cbz-LLVY-X1; configuration not given here) | None | ++ | – | performed less optimally than the AAF-aminoluciferin sequence | – | –
3 | CN[C@@H]1C[C@H]2O[C@@](C)([C@@H]1OC)n1c3ccccc3c3c4c(c5c6ccccc6n2c5c31)C(=O)NC4 [staurosporine] | – | – | – | – | caspase activation (and therefore apoptosis induction) is evident | apoptotic profile
